In patent publication US20260055080A1, “NOVEL SUBSTITUTED QUINOLINE AND TETRAHYDRONAPHTHALENE CARBOXYLIC ACID DERIVATIVES AND THERAPEUTIC USES THEREOF” (SANOFI, priority 2022, published 2026):

Molecular target: T1, ERα (Homo sapiens, UniProt P03372)
T1 construct: measured to determine the levels of ERα and DNA respectively; host or cells: MCF7
T1 sequence (P03372 1-595): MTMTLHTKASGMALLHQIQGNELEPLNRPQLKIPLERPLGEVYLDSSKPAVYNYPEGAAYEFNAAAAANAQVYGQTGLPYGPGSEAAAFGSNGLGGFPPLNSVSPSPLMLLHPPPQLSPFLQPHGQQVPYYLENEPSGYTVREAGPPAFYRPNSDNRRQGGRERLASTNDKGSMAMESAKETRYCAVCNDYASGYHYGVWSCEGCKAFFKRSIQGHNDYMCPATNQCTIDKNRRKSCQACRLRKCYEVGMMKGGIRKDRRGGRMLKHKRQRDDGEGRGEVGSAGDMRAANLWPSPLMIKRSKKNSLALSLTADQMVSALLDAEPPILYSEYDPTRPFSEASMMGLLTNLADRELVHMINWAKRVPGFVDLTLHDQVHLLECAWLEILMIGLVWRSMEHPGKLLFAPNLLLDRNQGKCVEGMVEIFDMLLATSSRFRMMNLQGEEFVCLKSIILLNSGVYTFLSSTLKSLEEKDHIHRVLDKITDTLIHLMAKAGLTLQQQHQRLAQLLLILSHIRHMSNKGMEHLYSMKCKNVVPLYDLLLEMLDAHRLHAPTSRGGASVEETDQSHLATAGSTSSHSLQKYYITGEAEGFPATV
Experiment: Estrogen receptor degradation activity: breast cancer cell ERα in cell western assay
Format: cell-based
Conditions: MCF7 cells; for % Degradation At 0.3 μM: 4 hours, relative to fulvestrant 0.1 μM positive control; for DC50: 4 hours post compound addition, concentration which degrades 50% of the estrogen receptor, read-out: Degradation IC50
Method: Test: Estrogen Receptor Degradation Activity
Said test involves measuring the in vitro degradation activity of the compounds of the Table 1.
The measurements of the degradation activities were made using a breast cancer cell ERα in cell western assay as described hereunder.
MCF7 cells (ATCC) were seeded in 384 wells microplate (collagen coated) at a concentration of 10000 cells/30 μL per well in red phenol free MEM alpha medium (invitrogen) containing 5% charcoal dextran striped FBS. The following day, 9 points serial 1:5 dilution of each compound was added to the cells in 2.5 μL at final concentrations ranging from 0.3-0.0000018 μM (in Table 2), or 0.1 μM for fulvestrant (using as positive control). At 4 hours post compound addition the cells were fixed by adding 25 μL of formalin (final concentration 5% formalin containing 0.1% triton) for 10 minutes at room temperature and then washed twice with PBS. Then, 50 μL of LI-COR blocking buffer containing 0.1% Triton was added to plate for 30 minutes at room temperature. LI-COR blocking buffer was removed and cells were incubated overnight at cold room with 50 μL anti-ER rabbit monoclonal antibody (Thermo scientific MA1-39540) diluted at 1:1000 in LI-COR blocking buffer containing 0.1% tween-20. Wells which were treated with blocking buffer but no antibody were used as background control. Wells were washed twice with PBS (0.1% tween-20) and incubated at 37° C. for 60 minutes in LI-COR (0.1% tween-20) containing goat anti-rabbit antibody Alexa 488 (1:1000) and Syto-64 a DNA dye (2 μM final concentration). Cells were then washed 3 times in PBS and scanned in ACUMEN explorer (TTP-Labtech). Integrated intensities in the green fluorescence and red fluorescence were measured to determine the levels of ERα and DNA respectively.
The degradation activity with respect to estrogen receptors in this test is given by the concentration which degrades 50% of the estrogen receptor (or IC50) in nM.
The % of ERα levels decrease were determined as follows: % inhibition=100*(1-(sample-fulvestrant: DMSO-fulvestrant)).

% Degradation At 0.3 μM [%] | DC50 [nM] | SMILES
62 | 196 | O=C(O)c1ccc2c(C(=O)c3ccc(OCCN4CC(CF)C4)cc3)c(-c3ccc(C(F)(F)F)cc3F)cnc2c1 [Compound 2, 3-(2-fluoro-4-(trifluoromethyl)phenyl)-4-(4-(2-(3-(fluoromethyl)azetidin-1-yl)ethoxy)benzoyl)quinoline-7-carboxylic acid]
49 | 252 | CCNCCc1ccc(CN(CC)c2cc(OC)ccc2[C@@H]2CCc3cc(C(=O)O)ccc3C2)cc1 [Compound 3, (R)-6-(2-(ethyl(4-(2-(ethylamino)ethyl)benzyl)amino)-4-methoxyphenyl)-5,6,7,8-tetrahydronaphthalene-2-carboxylic acid]
51 | 136 | O=C(O)c1ccc2c(C(=O)c3ccc(OC4CN(CCCF)C4)cc3)c(-c3ccc(C(F)(F)F)cc3F)cnc2c1 [Compound 1]
